Data reported in US10729749B2, “Neurodegenerative disorders” (priority 2014, dated 2020).
Ends that are not written are not given here.

Key:
PC12 cells [1] = test: Acetylcholinesterase activity assay (AChE release from PC12 cells, Ellman reagent); assay type: cell-based; settings: % AChE release compared to untreated control
Procedure: AChE activity was measured using the Ellman reagent that measures the presence of thiol groups as a result of AChE activity. Cells were plated the day before the experiment as for the cell viability assay. […] The Ellman reagent was prepared as a mixture of the 3 solutions in a ratio 33(A):3(B):4(C). Absorbance measurements were taken at regular intervals (3, 10, 30 and 60 mins) across experiments at 405 nm.

[2] = Cell viability assay (Cell Counting Kit-8); assay type: cell-based; settings: % PC12 cell viability compared to untreated control;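 further: PC12 cells in 96-well plates, WST-8 turned into formazan by cellular dehydrogenases, absorbance read at 450 nm after 2 h with the reagent, signal proportional to living cell number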
Source text: (§1) A Cell Counting Kit-8 (CCK-8) was used as an improvement of the SRB technique used before. By utilizing the highly water-soluble tetrazolium salt WST-8, CCK-8 produces a water-soluble formazan dye upon reduction in the presence of an electron carrier. WST-8 is reduced by dehydrogenases in cells to give a yellow colored product (formazan), which is soluble in the tissue culture medium. The amount of the formazan dye generated by the activity of dehydrogenases in cells is directly proportional to the number of living cells. PC12 cells are plated in 200 μl of complete growth medium the day before the experiment in 96 well plates. […] Subsequently, 100 μl of growth medium is removed and 10 μl of CCK-8 (Cell Counting Kit-8) solution is added. The plate is incubated for 2 hours in the incubator and then placed in the absorbance plate reader. The absorbance must be measured at 450 nm.

PC12 cells [3] = test: Calcium fluorometry (Fluo-8, acetylcholine-induced calcium influx); assay type: cell-based; design: Calcium: scale not given here; settings: for Calcium: calcium influx value, control based on acetylcholine alone
Source text: A final criterion used to determine active peptides is the amount of calcium influx into PC12 cells caused by the peptide. The calcium influx value can be calculated as described in the methods section. The calcium value corresponds to the result from the experiment when applying T30 or Aβ alone or in conjunction with the small peptides. The control value for these experiments is based on the calcium influx induced by acetylcholine alone. Preferably, the peptide, derivative or analogue thereof has a calcium influx value of less than 120, and more preferably a value of 97-120.
PC12 cells are plated in 200 μl of complete growth medium the day before the experiment in 96 well plates. On the day of the experiment, the Fluo-8 solution (Abcam) is prepared (as per provider protocol). Subsequently, 100 μl of growth medium is removed and 100 μl of Fluo-8 solution is added. Treatments with T30 or Aβ in conjunction with NBP-14 or small peptides are added and incubated for 30 minutes in the incubator and 30 minutes room temperature.
After 1 hour, the plate is placed in the fluorescence plate reader (Fluostar). Before reading the fluorescence, acetylcholine (ACh) 100 μM is prepared and placed in the Fluostar injector. For each well, the reading will be formed by a basal fluorescence followed by acetylcholine injection that will induce an increase of calcium via nicotinic receptors. The effects of the peptides are then evaluated.

PC12 cells [4] = test: Value coefficient (AChE release vs PC12 cell viability) and filter selection; assay type: cell-based; settings: for Value AChE/Viability: 1.0 to 1.1 = protective, control = 1
Source text: AChE release vs PC12 cell viability (for which there is a significant negative correlation); • 2. In silico binding to the allosteric site of the α7 nicotinic-receptor; • 3. Calcium influx into PC12 cells; and • 4. Peptide size.

basal forebrain = test: VSDI of evoked responses in basal forebrain brain slices; design: species or system rat; settings: T30 2 μM & peptide 4 μM in perfusate; 30V electrical stimulation
Procedure: Coronal rat brain slices were prepared according to the procedure described in (Badin et al., 2013) but this time containing basal forebrain (+0.70 and −0.26 millimetres (mm) from bregma (Paxinos and Watson, 1998). Optical imaging using voltage-sensitive dyes was then performed as previously described (Badin et al., 2013, Neuropharmacology. 73C:10-18).
VSDI data were recorded in 4×4 mm 2-dimensional images, equivalent to 100×100 pixels—each pixel being 40×40 micrometres (μm), from which critical data were extracted. VSDI data was not gathered throughout the experimental run, but in fact was recorded in discrete periods of time 15 minutes in length. The inter-stimulus interval (ISI) between stimulations was 28 seconds and therefore, every recording epoch consisted of 32 successive stimulations. The data from all 32 stimulations were then averaged into a single file for each experimental condition and analysed using a VSDI data analysis toolbox specially made for MatLab (Bourgeois et al., 2014, PLoS One. 9:e108686). […] In order to quantify VSDI data however, the area under the curve was calculated (summed fluorescence fractional change, FIG. 11-22) between the moment of stimulation (t=0) and 280 ms after that; this method of quantification takes into account all the components of the immediate and longer-latency response. […]

PC12 cells [5] = test: Cell viability assay (Cell Counting Kit-8); assay type: cell-based; settings: toxic peptide alone; compared to untreated control;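 further: PC12 cells in 96-well plates, WST-8 turned into formazan by cellular dehydrogenases, absorbance read at 450 nm after 2 h with the reagent, signal proportional to living cell number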
Source text: as §1

α7 nicotinic-receptor = α7 nicotinic-receptor (Homo sapiens, UniProt P36544); settings: cited from earlier work
Chain of α7 nicotinic-receptor (P36544 23-502): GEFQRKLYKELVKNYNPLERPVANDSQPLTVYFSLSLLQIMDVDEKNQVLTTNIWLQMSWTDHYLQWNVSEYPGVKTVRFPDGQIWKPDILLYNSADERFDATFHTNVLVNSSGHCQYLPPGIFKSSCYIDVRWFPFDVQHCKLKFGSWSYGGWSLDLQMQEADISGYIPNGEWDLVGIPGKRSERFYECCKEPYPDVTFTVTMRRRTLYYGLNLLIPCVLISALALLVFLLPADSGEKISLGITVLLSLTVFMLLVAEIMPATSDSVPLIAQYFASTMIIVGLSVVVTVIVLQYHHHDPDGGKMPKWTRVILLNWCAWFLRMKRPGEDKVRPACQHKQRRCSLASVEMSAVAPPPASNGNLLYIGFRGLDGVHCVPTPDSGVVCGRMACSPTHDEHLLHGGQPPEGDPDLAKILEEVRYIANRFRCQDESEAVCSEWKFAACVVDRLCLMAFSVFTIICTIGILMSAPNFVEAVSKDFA

cells = settings: inventors' previous work; cited from earlier work
rat brain slices = settings: inventors' previous work, cited from earlier work
[6] = T30 5 μM + small peptide 0.5 μM

KAEFHR [NBP-603, KAEFHR]
AChE (PC12 cells [1]; [6]): 96.06%
viability [2, 6]: 94.8%
Calcium (PC12 cells [3]; T30 + small peptide): 119.86
dose-dependent effect on calcium potentiation against T30 (PC12 cells [3]; dose-dependent experiments, FIGS. 8 and 9): protect against T30 effects
Value AChE/Viability (PC12 cells [4]; [6]): 1.01
neuroprotective agent against T30 when all four filters are taken into consideration (PC12 cells [4]; filters: value coefficient, in silico binding, calcium influx, peptide size): neuroprotective agents against T30
reversal of T30-induced changes in evoked responses (basal forebrain): some significant effect in reversing the changes induced by T30

KAEFHRWSSYMVHWKNQFDHYSKQDRCSDL [T30, reference compound]
% PC12 cell viability (PC12 cells [5]): 74.309%
value coefficient x (PC12 cells [4]; toxic peptide alone, x>1.1 means toxicity): 2.28

AEFHRWSSYMVHWK (listed as Homo sapiens) [T14, linear 14 amino acid peptide from the C-terminus of AChE]
affinity for the α7 nicotinic-receptor (α7 nicotinic-receptor): 0.005 µM

NBP14: cyclic peptide based on T14 sequence AEFHRWSSYMVHWK, cyclated via the terminal Alanine and Lysine residues (head-to-tail cyclised; listed as Homo sapiens)
reversal of T30-induced changes in evoked responses (basal forebrain): significantly reverse any kind of change induced by T30
action at the α7 nicotinic-receptor (α7 nicotinic-receptor; inventors' previous work): true antagonist of the α7 nicotinic-receptor
compensatory AChE release (cells): blocks compensatory AChE release induced by the toxicity of linear T14 and T30
protection of cells from toxicity (cells): protect cells from linear T14, T30 and β-amyloid toxicity
effect on Ca2+ concentrations (rat brain slices; given alone): no significant effects on Ca^2+ concentrations in rat brain slices
effect on β-amyloid action on Ca2+ concentrations (rat brain slices): blocks the effects of β-amyloid

COc1ccc2c3c1O[C@H]1C[C@@H](O)C=C[C@@]31CCN(C)C2 [galanthamine]
affinity for the α7 nicotinic-receptor (α7 nicotinic-receptor): 10 µM

VHWKAEFHRWSS [NBP-1214]
AChE (PC12 cells [1]; Aβ 5 μM + small peptide 0.5 μM): 89.28%
viability ([2]; Aβ 5 μM + small peptide 0.5 μM): 85.5%
Calcium (PC12 cells [3]; Aβ + small peptide): 217.64
Value AChE/Viability (PC12 cells [4]; Aβ 5 μM + small peptide 0.5 μM): 1.04

RWSSY [NBP-508]
AChE (PC12 cells [1]; Aβ 5 μM + small peptide 0.5 μM): 106.06%
viability ([2]; Aβ 5 μM + small peptide 0.5 μM): 97.6%
Calcium (PC12 cells [3]; Aβ + small peptide): 120.72
Value AChE/Viability (PC12 cells [4]; Aβ 5 μM + small peptide 0.5 μM): 1.09

FHRWSSYMVHWKAE [NBP-1406]
AChE (PC12 cells [1]; [6]): 92.78%
viability [2, 6]: 86.6%
Calcium (PC12 cells [3]; T30 + small peptide): 101.06
Value AChE/Viability (PC12 cells [4]; [6]): 1.07

SSYMVHWK [NBP-810]
AChE (PC12 cells [1]; Aβ 5 μM + small peptide 0.5 μM): 96.22%
viability ([2]; Aβ 5 μM + small peptide 0.5 μM): 95.3%
Calcium (PC12 cells [3]; Aβ + small peptide): 156.05
Value AChE/Viability (PC12 cells [4]; Aβ 5 μM + small peptide 0.5 μM): 1.01
